# Reference: ChEMBL document CHEMBL3507680, “University of Dundee, Gates Library screen for HepG2 cell viability”
# Assay: Human HepG2 cell viability assay in 384 well format
# Type: toxicity, cell-based
# Parameters: dose 125 nL, time 70.5 hour; concentration not given beside the values
# Settings: HepG2 cells, read-out: Inhibition
row,Structure (SMILES),cytotoxicity at 70.5 h
1,O=C(c1ccnnc1)N1CC[C@@H](O)[C@@H]1Cc1ccccc1,-9.3%
2,CN(C)C(=O)N1CC[C@@H](O)[C@@H]1Cc1ccccc1,-7.54%
3,O=C1CC2(CCCCN2C(=O)c2cccs2)CN1CC1CC1 (stereo not given),3.54%
4,CN(C)CCNC(=O)c1ccc2ccc(N(C)CC3CC3)n2c1,-0.944%
5,Cc1nc(N2CCOCC2)nc2c1CCN(C(=O)N1CCCC1)CC2,-2.06%
6,Cc1cccc(CN2C(=O)CCC23CCN(Cc2ccoc2)CC3)n1,-0.993%
7,CN(C)C(=O)CNC(=O)c1ccc2ccc(N(C)CC3CC3)n2c1,-12.4%
8,CCS(=O)(=O)N1CCc2nc(N3CCCC3)nc(N(C)C)c2CC1,24.9%
9,CCS(=O)(=O)N1CCOC2(COCCN(C(C)=O)C2)C1 (stereo not given),28.6%
10,Cc1nnc(N2C[C@@H]3CCCO[C@@H]3[C@H](N(C)C)C2)s1,26.3%
11,CN1CCN(C(=O)Cc2ccccn2)Cc2cccnc21,-2.09%
12,COCC1CN(C(=O)c2ccnnc2)Cc2ncnn2C1 (stereo not given),-3.33%
13,CCN1C(=O)C2(CCOCC2)c2cc(NC(=O)c3cnccn3)ccc21,1.85%
14,CCN1C(=O)C2(CCOCC2)c2cc(NC(=O)c3cc(C)n[nH]3)ccc21,-3.02%
15,Cc1cc(C(=O)NCC2Cn3nnc(C)c3CO2)no1 (stereo not given),-7.19%
16,Cn1cc(CN2CCc3c(COCc4ccncc4)cncc3C2)cn1,-6.18%
17,Cc1ccc(CN2CC[C@H]3C[C@H](c4nc(C5CC5)cs4)O[C@@H]3C2)o1,-6.11%
18,c1cc(CN2CC[C@H]3C[C@H](c4nc(C5CC5)cs4)O[C@@H]3C2)ccn1,-7.31%
19,O=C(c1ccoc1)N1CCC2(C1)CN(c1ncc(F)cn1)C2,-0.91%
20,O=C(c1ccoc1)N1CCC2(C1)CN(c1ncccn1)C2,0.524%
21,CN(C)Cc1nnc2n1CCN(Cc1cccnc1)C2,-2.36%
22,CCOCC(=O)NCC1Cn2nnc(-c3cccc(F)c3)c2CO1 (stereo not given),-4.09%
23,COc1ccc(CN2C[C@@H]3CN(C(=O)c4ccsc4)C[C@@H]3C2=O)cc1,-4.99%
24,Cc1cccc(CN2C[C@@H]3CN(C(=O)c4ccco4)C[C@@H]3C2=O)c1,-1.41%
25,O=C(O)c1ccc2c(c1)C1(CCCCC1)CN2C(=O)c1ccnnc1,-4.43%
26,CC(=O)N1CCOC2(CCCN(Cc3ccc(Cl)c(C(F)(F)F)c3)C2)C1 (stereo not given),-1.77%
27,Cn1cc(CN2CC3(CCN(Cc4ccsc4)C3)C2)cn1,24.7%

row,Structure (SMILES),cytotoxicity at 70.5 h
1,O=C(O)CN1CCC2(CCc3ccccc32)CC1,13.9%
2,O=C(O)c1ccc2c(c1)C1(CCCCC1)CN2C(=O)c1cccc(F)c1,8.94%
3,CC(=O)N1[C@H](Cn2cncn2)C[C@@H]2CN(Cc3nccs3)CC[C@@H]21,14.9%
4,O=C(c1cccs1)N1CC(C(=O)N2CCCC2)C2(CCOCC2)C1 (stereo not given),0.22%
5,O=C(Nc1ccccc1)C1CN(C(=O)c2cccs2)CC12CCOCC2 (stereo not given),-0.505%
6,CC(C)NC(=O)C1CN(C(=O)c2cccs2)CC12CCOCC2 (stereo not given),-1.8%
7,COCCN1CCO[C@H]2[C@H](OCc3cccc(C)n3)CC[C@@H]21,-2.63%
8,Cc1ccc(CN2CC[C@H]3OCC[C@@H](C(=O)NCC4CC4)[C@@H]3C2)o1,-5.45%
9,CC(C)CN1CCC2(CC(C(=O)NCc3cccnc3)=NO2)C1 (stereo not given),-5.8%
10,COC[C@]12COC[C@H]1CN(Cc1cccnc1OC)C2,-19%
11,Cc1nc(N2CCCC2)nc2c1CCN(C(=O)CC1CC1)CC2,-8.4%
12,COC[C@H]1CCC[C@]12CN(C(=O)NCc1ccccc1)CCO2,-16.8%
13,O=C(NCC1CC1)C1CN(C(=O)c2cccc(Cl)c2)CC12CCOCC2 (stereo not given),38.6%
14,CCC1=N[C@@]2(CC[C@@H]3CN(S(=O)(=O)CC(C)C)C[C@@H]32)C(=O)N1C,-1.14%
15,Cc1csc([C@@H]2C[C@@H]3CCN(C(=O)c4ccnnc4)C[C@H]3O2)n1,-3.66%
16,Cn1ccnc1CN1CCC2(CC1)CN(CC1CC1)C(=O)CO2,12.3%
17,CC(C)N(C)Cc1nnc2n1CCCN(C(=O)c1ccco1)C2,-6.16%
18,O=C(C1CC=CC1)N1C[C@@H]2[C@@H](C1)OCC(=O)N2Cc1cccnc1,0.567%
19,Cc1ccoc1C(=O)N1CC[C@H]2OCC[C@@]2(COCc2ccncc2)C1,-5.41%
20,O=C(NCC1CC1)C1CN(C(=O)c2cccnc2)CC12CCOCC2 (stereo not given),-7.11%
21,COCC1CN(C(=O)C2=CCCCC2)Cc2cnn(CC3CC3)c21 (stereo not given),-2.03%
22,O=C1CC2(CCCCN2C(=O)c2ccncc2)CN1CC1CC1 (stereo not given),1.69%
23,COCC1CN(Cc2sccc2C)Cc2nnn(CC3CC3)c21 (stereo not given),-4.06%
24,CN(C)C(=O)CO[C@@H]1CN(Cc2ccccc2F)[C@@H]2CCCO[C@@H]21,-6.14%
25,CC(=O)N1CCCC2(CN(Cc3ccc(F)cc3)CCO2)C1 (stereo not given),2.34%
26,Cc1ccc2c(c1)CCC21CCN(C(=O)CN(C)C)CC1,-1.12%
27,Cc1ccc(CNCC2Cn3nnc(-c4cccc(F)c4)c3CO2)o1 (stereo not given),-2%

row,Structure (SMILES),cytotoxicity at 70.5 h
1,c1csc(CN2CCO[C@H]3[C@H](OCC4CCCC4)CC[C@@H]32)n1,-1.77%
2,COCCN1CCC2(CCN(Cc3cccs3)CC2)C1=O,16.2%
3,O=C([C@@H]1COC[C@H]2CN(C3CCCC3)C[C@H]21)N1CCCCO1,11.7%
4,CC(=O)N1[C@H](Cn2cncn2)C[C@@H]2CN(CC3CC3)CC[C@@H]21,-1.99%
5,CCN1CCC2(CCN(Cc3nccs3)CC2)C1=O,0.565%
6,O=C([C@@H]1COC[C@H]2CN(C3CCCC3)C[C@H]21)N1CCCO1,-1.63%
7,CC(=O)N1CCC2(CCN(Cc3cccc(F)c3)CC2)CC1,-2.12%
8,CCC(=O)N1CCC2(CCN(Cc3cccc(F)c3)CC2)CC1,-1.29%
9,COCCNC(=O)[C@H]1CC[C@@H]2[C@@H](CCN2c2ncc(F)cn2)O1,-1.33%
10,O=C(c1ccco1)N1CCCC2(CN(Cc3ccc(F)cc3)CCO2)C1 (stereo not given),-1.46%
11,Cc1ccc(CN2CC[C@H]3OCC[C@@H](C(=O)NCC4CC4)[C@@H]3C2)s1,-6.5%
12,CCS(=O)(=O)N1CCOC2(CCCN(c3ccccn3)C2)C1 (stereo not given),-2.6%
13,CNC(=O)c1cc2c(nc1NCC1CC1)CCN(c1ccncn1)CC2,-24.6%
14,CCS(=O)(=O)N1C[C@H]2CCC[C@@]2(COc2ccccn2)C1,-21.9%
15,O=C(c1cnccn1)N1CCOCC2(CCN(C3CCOCC3)C2)C1 (stereo not given),-15.5%
16,COc1ccccc1CN1CC[C@H]2C[C@@H](C(=O)N3CCCC3)O[C@H]2C1,-7.49%
17,O=C(c1ccccn1)N1CCn2cnc(COCC3CC3)c2C1,-1.29%
18,O=C([C@H]1CCCO1)N1CC[C@H](O)[C@@H]1Cc1ccncc1,1.55%
19,Cc1nc(CN2CC3(CCN(c4ncc(F)cn4)C3)CC2=O)cs1 (stereo not given),-0.115%
20,C[C@@H]1CN(Cc2cccc(F)c2)C[C@]12CCN(Cc1cccnc1)C2=O,-10.4%
21,CNC(=O)[C@H]1C[C@@H]2CN(Cc3cccnc3OC)C[C@@H]2N1C(C)=O,-9.57%
22,Cc1ccc(C(=O)N2CC3(CCNCC3)c3cc(Cl)ccc32)cn1,-7.61%
23,O=C(c1ccncc1)N1CC2(CCNCC2)c2cc(Cl)ccc21,-6.69%
24,COCCN1CC[C@]2(CN(Cc3cccnc3)C[C@H]2C)C1=O,-10.8%
25,CN(C)CCN1CCCC12CCCN(C(=O)c1cccnc1)C2 (stereo not given),-5.22%
26,C[C@H]1CN(CC2CCOCC2)C[C@@]12CCN(Cc1cccnc1)C2=O,-9.39%
27,Cc1cccc(CN2C(=O)CCC23CCN(c2ccccn2)CC3)n1,-9.61%

row,Structure (SMILES),cytotoxicity at 70.5 h
1,Cc1ccc(N2C[C@@H]3CCCO[C@@H]3[C@H](N3CCCC3)C2)nn1,27%
2,COCC1CN(Cc2cccnc2)Cc2nnn(CC3CC3)c21 (stereo not given),19.4%
3,O=C(Cc1cccnc1)N1CCCC2(CCN(C3CCOCC3)C2)C1 (stereo not given),9.18%
4,c1ccc(CN2CCC3(CC2)CN(c2ccccn2)CCO3)nc1,-5.77%
5,CCS(=O)(=O)N1CCC2(C1)C(=O)N(C)CCN2Cc1ccncc1 (stereo not given),-7.36%
6,O=C(Cc1cccnc1)N1CCC2(CCN(CC3CCCCC3)C2)CC1,7.82%
7,c1cncc(COCc2nnc3n2CCN(Cc2cccs2)C3)c1,12.3%
8,Cc1nc(CN2CCCC3(CCN(c4cccnc4)C3=O)C2)cs1 (stereo not given),14.2%
9,O=C1N(c2cccnc2)CCC12CCCN(Cc1ccoc1)C2 (stereo not given),-4.21%
10,Cn1ccnc1CN1CCC2(CC1)CCN(Cc1ccoc1)C2,-2.31%
11,CC(C)CN1CCn2c(COCc3cccnc3)nnc2C1,-4.01%
12,c1csc(CN2CC3(CCN(Cc4ccsc4)C3)C2)n1,8.65%
13,CN(C)[C@@H]1CCN(c2ncccn2)[C@H]1Cc1cccnc1,-3.76%
14,CN(C)[C@@H]1CCN(c2ncc(F)cn2)[C@H]1Cc1ccncc1,-5.64%
15,Cc1cccc(CO[C@@H]2CC[C@H]3[C@H]2OCCN3Cc2cc(C)on2)n1,-0.405%
16,O=C1CC[C@H]2[C@H](CCN2c2ncc(F)cn2)N1c1cccnc1,-6.96%
17,Cc1ccc(C(=O)N2C[C@H]3CCCC(OCc4cccnc4)[C@H]3C2)cn1 (stereo not given in full),-1.36%
18,CO[C@@H]1CCN(Cc2cnn(C)c2)[C@@H]2CN(Cc3ccco3)C[C@@H]21,-13.3%
19,c1ccc(CO[C@H]2CO[C@@]3(CCN(Cc4ccoc4)C3)C2)nc1,-18.7%
20,COc1ccc(CN2CCn3cc(CN4CCCCC4)nc3C2)cc1,29.5%
21,C[C@@H]1CN(Cc2ccccn2)C[C@]12CCN(Cc1cccnc1)C2=O,-13.1%
22,CN1CCN(Cc2cccnc2)C2(CCN(C3CCOCC3)C2)C1=O (stereo not given),-5.52%
23,CN1CCN(Cc2cccnc2)C2(CCN(Cc3ccccn3)C2)C1=O (stereo not given),-7.04%
24,CCN(CC)CCN1CCO[C@H]2[C@@H](OCc3ccncc3)CC[C@@H]21,-1.93%
